≈ marks a conversion by molar mass, not a printed value. Like-named read-outs stand apart in the source and are kept apart here.
How the values were obtained:
[1] = system: Vancomycin-resistant enterococci NCTC 12201; assay: In vitro infectivity assay (MIC), Exp. Ex. 2-1; format: cell-based; conditions: Gram-positive, microdilution, MIC after 24 h
Method: (§1) The antibacterial activities were measured based on broth dilution techniques of international standards (Clinical Laboratory Standards Institute: CLSI). The activities were shown by minimum inhibitory concentrations (MICs) determined by inoculating the above-mentioned strains at a concentration of about 10^5 […] into Mueller-Hinton broth (manufactured by Difco) containing 0.85% NaCl in 96-well microplates and incubating the plates at 35° C. for 24 hours. Measurement was carried out three times.
(§2) The antibacterial activities of the compounds of the present invention against various strains such as vancomycin-resistant enterococci (VRE), vancomycin intermediate-resistant Staphylococcus aureus (VISA), methicillin-resistant Staphylococcus aureus (MRSA), and methicillin-sensitive Staphylococcus aureus (MSSA) were examined. Of the bacteria used in MIC measurement in this test example, clinical bacteria of MRSA (OM481 strain and OM584 strain) were supplied from Okayama University Hospital (Japan). An MRSA strain N315, a vancomycin intermediate-resistant Staphylococcus aureus (VISA) strain Mu50, and a methicillin-sensitive Staphylococcus aureus (MSSA) strain FDA 209P were used as controls. Vancomycin-resistant enterococcus (VRE) strains NCTC 12201 and FN-1 were supplied from the National Institute of Infectious Disease (Japan).

[2] = system: Vancomycin intermediate-resistant Staphylococcus aureus Mu50; assay: In vitro infectivity assay (MIC), Exp. Ex. 2-1; format: cell-based; conditions: Gram-positive, microdilution, MIC after 24 h
Method: as §1, §2

[3] = system: Vancomycin-resistant enterococci FN-1; assay: In vitro infectivity assay (MIC), Exp. Ex. 2-1; format: cell-based; conditions: Gram-positive, microdilution, MIC after 24 h
Method: as §1, §2

Escherichia coli K-12 = assay: Antibacterial activity (MIC) against Gram-negative strains, microdilution; format: cell-based; conditions: for MIC (Gram-nagative) K-12: MIC after 24 h
Method: as §1

[4] = system: Pseodomonas aeruginosa PAOI; assay: as above; format: cell-based; conditions: MIC after 24 h
Method: as §1

[5] = system: Methicillin sensitive S. aureus 209P; assay: In vitro infectivity assay (MIC), Exp. Ex. 2-1; format: cell-based, Staphylococcus aureus; conditions: Gram-positive, microdilution, MIC after 24 h
Method: as §1, §2

[6] = system: Methicillin-resistant S. aureus N315; assay: In vitro infectivity assay (MIC), Exp. Ex. 2-1; format: cell-based, Staphylococcus aureus; conditions: Gram-positive, microdilution, MIC after 24 h
Method: as §1, §2

[7] = system: Methicillin-resistant S. aureus OM481; assay: In vitro infectivity assay (MIC), Exp. Ex. 2-1; format: cell-based, Staphylococcus aureus; conditions: Gram-positive, microdilution, MIC after 24 h
Method: as §1, §2

[8] = system: Methicillin-resistant S. aureus COL; assay: In vitro infectivity assay (MIC), Exp. Ex. 2-1; format: cell-based, Staphylococcus aureus; conditions: Gram-positive, microdilution, MIC after 24 h
Method: as §1, §2

[9] = system: Methicillin-resistant S. aureus OM584; assay: In vitro infectivity assay (MIC), Exp. Ex. 2-1; format: cell-based, Staphylococcus aureus; conditions: Gram-positive, microdilution, MIC after 24 h
Method: as §1, §2

E. coli DNA gyrase = biological target: T1, E. coli DNA gyrase (Escherichia coli, UniProt P0AES4+P0AES6); assay: DNA gyrase inhibition (supercoiling kit), Exp. Ex. 2-2; format: biochemical
T1 construct: purchased John Innes Enterprises #K0001
Method: As a kit for measurement of DNA gyrase of Escherichia coli, a product purchased from John Innes Enterprises (Gyrase Supercoiling assay kit #K0001) was used. Relaxed DNA was modified with gyrase into supercoiled DNA, and reaction products were separated by electrophoresis depending on the sizes of the molecular weights to examine anti-gyrase effects (IC50). 1 unit (1 U) of DNA gyrase and […] of relaxed pBR322 DNA were added to […] of the reaction solution, and the mixture was allowed to react at 37° C. for 30 minutes in the presence of 35 mM Tris-HCl (pH 7.5), 24 mM KCl, 4 mM MgCl2, 2 mM DTT, 1.8 mM spermidine, 1 mM ATP, 6.5% (w/v) glycerol, and 0.1 mg/ml BSA. The reactions were stopped using […] of a reaction stop solution (40% sucrose, 100 mM Tris-HCl (pH 7.5), 1 mM EDTA, 0.5 mg/ml bromophenol blue).

[10] = biological target: T2, Escherichia coli Topoisomerase IV (Escherichia coli, UniProt P0AFI2+P20083); assay: Topoisomerase IV inhibition (decatenation kit), Exp. Ex. 2-3; format: biochemical; conditions: decatenation of kDNA, 37° C., 30 minutes; read-out: IC50 (E. coli topoisomerase IV inhibitions)
T2 construct: purchased John Innes Enterprises
Method: (§3) Staphylococcus aureus Topoisomerase IV and Escherichia coli Topoisomerase IV were purchased from John Innes Enterprises. 1 unit of topoisomerase IV was cultured with 200 ng of kinetoplast DNA (kDNA) in 30 L of a reaction solution at 37° C. for 30 minutes under the conditions of 50 mM Tris-HCl (pH 7.5) (S. aureus)/50 mM HEPES-KOH (pH 7.6) (E. coli), 5 mM MgCl2 (S. aureus)/5 mM magnesium acetate (E. coli), 350 mM potassium glutamate (S. aureus)/100 mM potassium glutamate (E. coli), 5 mM dithiotheri (S. aureus)/10 mM dithiotheri (E. coli), 1.5 mM ATP (S. aureus)/1 mM ATP (E. coli), and 40% (w/v) glycerol. The reactions were stopped by adding 8 L of a reaction stop solution (40% sucrose, 100 mM Tris.HCl (pH 7.5), 1 mM EDTA, 0.5 mg/ml bromophenol blue). Agarose gel (1.0%) was poured into TAE (40 mM Tris acetate, 2 mM EDTA).

[11] = biological target: T3, Staphylococcus aureus Topoisomerase IV (Staphylococcus aureus, UniProt P0C1S7+P0C1U9); assay: as above; format: biochemical
T3 construct: purchased John Innes Enterprises
Method: as §3

[12] = system: Streptococcus pneumoniae R6; assay: In vitro infectivity assay (MIC), Exp. Ex. 2-1; format: cell-based; conditions: Gram-positive, microdilution, MIC after 24 h
[13] = supercoiling activity, 37° C., 30 minutes, read-out: IC50 (E. coli DNA gyrase inhibitions)
[14] = decatenation of kDNA, 37° C., 30 minutes, read-out: IC50 (S. aureus topoisomerase IV inhibitions)

T3 sequence (P0C1U9 whole entry): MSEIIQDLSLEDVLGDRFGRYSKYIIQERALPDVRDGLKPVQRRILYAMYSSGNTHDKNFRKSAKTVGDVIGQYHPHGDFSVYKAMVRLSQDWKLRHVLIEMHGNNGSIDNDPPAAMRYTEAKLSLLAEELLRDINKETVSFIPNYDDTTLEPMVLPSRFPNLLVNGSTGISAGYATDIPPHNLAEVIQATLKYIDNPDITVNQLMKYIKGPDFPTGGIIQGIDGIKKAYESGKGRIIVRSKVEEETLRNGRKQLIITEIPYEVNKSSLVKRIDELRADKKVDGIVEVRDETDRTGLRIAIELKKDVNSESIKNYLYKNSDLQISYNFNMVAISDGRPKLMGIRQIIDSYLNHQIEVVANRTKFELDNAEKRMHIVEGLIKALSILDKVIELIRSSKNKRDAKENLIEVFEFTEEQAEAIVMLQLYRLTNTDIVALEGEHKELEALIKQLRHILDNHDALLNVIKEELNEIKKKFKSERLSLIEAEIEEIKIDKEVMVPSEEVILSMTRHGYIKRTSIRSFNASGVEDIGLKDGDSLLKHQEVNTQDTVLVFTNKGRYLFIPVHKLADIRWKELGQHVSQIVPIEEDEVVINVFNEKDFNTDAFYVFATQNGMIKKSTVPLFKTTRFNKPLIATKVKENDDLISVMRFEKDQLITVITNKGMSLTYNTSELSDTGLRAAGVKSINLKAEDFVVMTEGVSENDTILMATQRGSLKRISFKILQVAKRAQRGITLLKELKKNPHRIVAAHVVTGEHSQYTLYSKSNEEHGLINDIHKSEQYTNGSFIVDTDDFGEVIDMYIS
T3 sequence (P0C1S7 whole entry): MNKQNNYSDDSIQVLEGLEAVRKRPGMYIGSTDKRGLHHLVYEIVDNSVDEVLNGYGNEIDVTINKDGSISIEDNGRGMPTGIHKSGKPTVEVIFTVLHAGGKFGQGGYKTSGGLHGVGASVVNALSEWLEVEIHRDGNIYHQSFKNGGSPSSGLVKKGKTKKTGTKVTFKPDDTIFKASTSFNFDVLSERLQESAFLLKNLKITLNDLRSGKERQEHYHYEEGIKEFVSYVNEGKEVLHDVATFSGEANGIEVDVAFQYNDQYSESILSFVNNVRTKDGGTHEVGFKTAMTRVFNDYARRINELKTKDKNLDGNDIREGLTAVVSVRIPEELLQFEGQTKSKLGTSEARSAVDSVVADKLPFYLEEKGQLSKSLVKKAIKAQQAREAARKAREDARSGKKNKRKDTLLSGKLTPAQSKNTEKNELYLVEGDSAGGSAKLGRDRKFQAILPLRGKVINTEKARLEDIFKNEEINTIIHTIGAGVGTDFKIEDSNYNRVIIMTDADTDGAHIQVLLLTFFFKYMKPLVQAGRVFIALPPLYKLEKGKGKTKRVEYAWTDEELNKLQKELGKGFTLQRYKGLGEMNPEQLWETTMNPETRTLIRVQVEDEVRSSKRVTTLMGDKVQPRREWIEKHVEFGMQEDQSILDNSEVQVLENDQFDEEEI
T2 sequence (P20083 whole entry): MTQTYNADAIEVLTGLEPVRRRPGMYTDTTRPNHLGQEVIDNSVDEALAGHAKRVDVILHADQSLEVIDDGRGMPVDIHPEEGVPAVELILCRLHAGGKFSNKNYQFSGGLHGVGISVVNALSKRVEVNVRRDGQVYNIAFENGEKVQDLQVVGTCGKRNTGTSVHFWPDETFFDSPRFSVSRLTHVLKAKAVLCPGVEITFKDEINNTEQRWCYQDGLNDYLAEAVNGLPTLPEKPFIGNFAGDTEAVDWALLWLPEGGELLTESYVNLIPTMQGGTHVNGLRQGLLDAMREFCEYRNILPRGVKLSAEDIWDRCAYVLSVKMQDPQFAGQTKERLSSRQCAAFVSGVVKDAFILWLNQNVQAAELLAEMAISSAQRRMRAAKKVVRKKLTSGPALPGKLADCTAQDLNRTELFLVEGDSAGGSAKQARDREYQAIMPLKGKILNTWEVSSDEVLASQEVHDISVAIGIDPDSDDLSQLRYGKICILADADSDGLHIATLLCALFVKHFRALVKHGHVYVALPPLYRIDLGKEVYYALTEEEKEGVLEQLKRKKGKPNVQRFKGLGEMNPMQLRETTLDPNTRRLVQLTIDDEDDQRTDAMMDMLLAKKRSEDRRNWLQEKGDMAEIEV
T2 sequence (P0AFI2 whole entry): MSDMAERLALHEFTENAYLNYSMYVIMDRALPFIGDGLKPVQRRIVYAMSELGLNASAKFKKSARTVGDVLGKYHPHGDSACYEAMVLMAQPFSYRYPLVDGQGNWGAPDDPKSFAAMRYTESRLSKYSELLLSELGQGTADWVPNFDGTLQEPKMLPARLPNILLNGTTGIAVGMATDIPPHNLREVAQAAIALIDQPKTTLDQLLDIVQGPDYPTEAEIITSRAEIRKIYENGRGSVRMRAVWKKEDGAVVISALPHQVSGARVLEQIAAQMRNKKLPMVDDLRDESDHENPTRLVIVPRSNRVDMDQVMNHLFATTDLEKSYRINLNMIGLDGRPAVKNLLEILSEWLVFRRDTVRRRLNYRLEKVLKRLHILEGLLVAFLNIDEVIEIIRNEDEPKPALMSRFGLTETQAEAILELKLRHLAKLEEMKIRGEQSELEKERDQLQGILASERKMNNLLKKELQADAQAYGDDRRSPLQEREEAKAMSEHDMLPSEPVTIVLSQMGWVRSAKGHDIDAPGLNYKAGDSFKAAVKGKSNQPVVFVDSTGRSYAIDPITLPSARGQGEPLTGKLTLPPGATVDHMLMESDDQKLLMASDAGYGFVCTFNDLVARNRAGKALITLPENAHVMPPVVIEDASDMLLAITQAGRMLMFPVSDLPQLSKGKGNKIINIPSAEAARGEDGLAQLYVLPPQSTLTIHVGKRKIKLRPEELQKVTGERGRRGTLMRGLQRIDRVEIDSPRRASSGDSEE
T1 sequence (P0AES4 whole entry, one chain of several): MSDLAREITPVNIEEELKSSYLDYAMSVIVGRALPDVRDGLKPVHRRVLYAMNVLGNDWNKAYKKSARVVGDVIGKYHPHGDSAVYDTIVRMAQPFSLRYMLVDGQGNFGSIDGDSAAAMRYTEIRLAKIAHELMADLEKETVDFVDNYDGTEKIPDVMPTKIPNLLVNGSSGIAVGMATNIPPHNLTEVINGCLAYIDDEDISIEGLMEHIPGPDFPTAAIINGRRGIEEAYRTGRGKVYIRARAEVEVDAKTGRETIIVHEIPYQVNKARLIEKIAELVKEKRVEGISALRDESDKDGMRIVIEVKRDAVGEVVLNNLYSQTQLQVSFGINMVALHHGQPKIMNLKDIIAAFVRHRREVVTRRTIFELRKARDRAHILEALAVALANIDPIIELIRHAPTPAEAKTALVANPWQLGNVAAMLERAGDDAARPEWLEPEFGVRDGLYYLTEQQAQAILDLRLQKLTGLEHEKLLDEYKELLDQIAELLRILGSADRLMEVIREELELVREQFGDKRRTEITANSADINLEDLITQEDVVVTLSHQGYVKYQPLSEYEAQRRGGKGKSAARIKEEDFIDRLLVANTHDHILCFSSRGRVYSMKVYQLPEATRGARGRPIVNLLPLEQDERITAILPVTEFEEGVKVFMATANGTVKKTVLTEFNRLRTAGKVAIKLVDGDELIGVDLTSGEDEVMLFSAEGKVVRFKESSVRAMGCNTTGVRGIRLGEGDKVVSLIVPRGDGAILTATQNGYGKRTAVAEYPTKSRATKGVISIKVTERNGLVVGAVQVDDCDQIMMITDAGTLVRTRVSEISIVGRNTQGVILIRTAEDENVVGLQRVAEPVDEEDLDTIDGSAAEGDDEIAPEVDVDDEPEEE

SMILES: O=C(CCCCc1ccc(F)cc1)OC[C@H]1O[C@@H](Oc2c(-c3ccc(O)c(O)c3)oc3cc(O)cc(O)c3c2=O)[C@H](OC(=O)CCCCc2ccc(F)cc2)[C@@H](O)[C@H]1O [Compound 14k, 2-(3′,4′-Dihydroxyphenyl)-5,7-dihydroxy-3-β-D-{2″,6″-di-O-[3′″-(4-fluorophenylpentanoyl)]}galactosyl-4H-chromen-4-one]
- MIC VRE NCTC 12201 [1]: 16 µg/mL (≈ 19.5 µM)
- MIC VISA Mu50 [2]: 16 µg/mL (≈ 19.5 µM)
- MIC VRE FN-1 [3]: 16 µg/mL (≈ 19.5 µM)
- MIC (Gram-nagative) K-12 (Escherichia coli K-12): >128 µg/mL
- MIC (Gram-nagative) PAO1 [4]: >128 µg/mL
- MIC MSSA 209P [5]: 4 µg/mL (≈ 4.87 µM)
- MIC MRSA N315 [6]: 2 µg/mL (≈ 2.44 µM)
- MIC MRSA OM481 [7]: 4 µg/mL (≈ 4.87 µM)
- MIC MRSA COL [8]: 16 µg/mL (≈ 19.5 µM)
- MIC MRSA OM584 [9]: 4 µg/mL (≈ 4.87 µM)
- IC50 (E. coli DNA gyrase; [13]): 5020 nM
- IC50 [10]: > 12000 nM
- IC50 [11, 14]: 4050 nM
- MIC S. Pneumoniae R6 [12]: 8 µg/mL (≈ 9.75 µM)

SMILES: O=C(CCCc1ccc(F)cc1)OC[C@H]1O[C@@H](Oc2c(-c3ccc(O)c(O)c3)oc3cc(O)cc(O)c3c2=O)[C@H](OC(=O)CCCc2ccc(F)cc2)[C@@H](O)[C@H]1O [Compound 14j, 2-(3′,4′-Dihydroxyphenyl)-5,7-dihydroxy-3-β-D-{2″,6″-di-O-[3′″-(4-fluorophenylbutanoyl)]}galactosyl-4H-chromen-4-one]
- MIC VRE NCTC 12201 [1]: 8 µg/mL (≈ 10.1 µM)
- MIC VISA Mu50 [2]: 4 µg/mL (≈ 5.05 µM)
- MIC VRE FN-1 [3]: 8 µg/mL (≈ 10.1 µM)
- MIC (Gram-nagative) K-12 (Escherichia coli K-12): >128 µg/mL
- MIC (Gram-nagative) PAO1 [4]: >128 µg/mL
- MIC MSSA 209P [5]: 4 µg/mL (≈ 5.05 µM)
- MIC MRSA N315 [6]: 4 µg/mL (≈ 5.05 µM)
- MIC MRSA OM481 [7]: 2 µg/mL (≈ 2.52 µM)
- MIC MRSA COL [8]: 16 µg/mL (≈ 20.2 µM)
- MIC MRSA OM584 [9]: 2 µg/mL (≈ 2.52 µM)
- IC50 (E. coli DNA gyrase; [13]): 2980 nM
- IC50 [10]: 8960 nM
- IC50 [11, 14]: 2940 nM
- MIC S. Pneumoniae R6 [12]: 2 µg/mL (≈ 2.52 µM)

SMILES: O=C(Cc1ccc(F)cc1)OC[C@H]1O[C@@H](Oc2c(-c3ccc(O)c(O)c3)oc3cc(O)cc(O)c3c2=O)[C@H](OC(=O)Cc2ccc(F)cc2)[C@@H](O)[C@H]1O [Compound 14e, 2-(3′,4′-Dihydroxyphenyl)-5,7-dihydroxy-3-β-D-[2″,6″-di-O-(4-fluorophenylacetyl)]galactosyl-4H-chromen-4-one]
- MIC VRE NCTC 12201 [1]: 0.5 µg/mL (≈ 0.679 µM)
- MIC VISA Mu50 [2]: 1 µg/mL (≈ 1.36 µM)
- MIC VRE FN-1 [3]: 0.5 µg/mL (≈ 0.679 µM)
- MIC (Gram-nagative) K-12 (Escherichia coli K-12): >128 µg/mL
- MIC (Gram-nagative) PAO1 [4]: >128 µg/mL
- MIC MSSA 209P [5]: 1 µg/mL (≈ 1.36 µM)
- MIC MRSA N315 [6]: 1 µg/mL (≈ 1.36 µM)
- MIC MRSA OM481 [7]: 1 µg/mL (≈ 1.36 µM)
- MIC MRSA COL [8]: 8 µg/mL (≈ 10.9 µM)
- MIC MRSA OM584 [9]: 1 µg/mL (≈ 1.36 µM)
- IC50 (E. coli DNA gyrase; [13]): 1050 nM
- IC50 [10]: 7210 nM
- IC50 [11, 14]: 460 nM
- MIC S. Pneumoniae R6 [12]: 0.5 µg/mL (≈ 0.679 µM)

SMILES: O=C(CCc1ccc(F)cc1)OC[C@H]1O[C@@H](Oc2c(-c3ccc(O)c(O)c3)oc3cc(O)cc(O)c3c2=O)[C@H](OC(=O)CCc2ccc(F)cc2)[C@@H](O)[C@H]1O [Compound 14m, 2-(3′,4′-Dihydroxyphenyl)-5,7-dihydroxy-3-β-D-{2″,6″-di-O-[3′″-(4-fluorophenylpropanoyl)]}galactosyl-4H-chromen-4-one]
- MIC VRE NCTC 12201 [1]: 16 µg/mL (≈ 20.9 µM)
- MIC VISA Mu50 [2]: 32 µg/mL (≈ 41.8 µM)
- MIC VRE FN-1 [3]: 16 µg/mL (≈ 20.9 µM)
- MIC (Gram-nagative) K-12 (Escherichia coli K-12): >128 µg/mL
- MIC (Gram-nagative) PAO1 [4]: >128 µg/mL
- MIC MSSA 209P [5]: 16 µg/mL (≈ 20.9 µM)
- MIC MRSA N315 [6]: 16 µg/mL (≈ 20.9 µM)
- MIC MRSA OM481 [7]: 16 µg/mL (≈ 20.9 µM)
- MIC MRSA COL [8]: 32 µg/mL (≈ 41.8 µM)
- MIC MRSA OM584 [9]: 16 µg/mL (≈ 20.9 µM)
- IC50 (E. coli DNA gyrase; [13]): 1400 nM
- IC50 [10]: 7520 nM
- IC50 [11, 14]: 2990 nM
- MIC S. Pneumoniae R6 [12]: 32 µg/mL (≈ 41.8 µM)

SMILES: Cc1ccc(CCC(=O)OCC2OC(Oc3c(-c4ccc(O)c(O)c4)oc4cc(O)cc(O)c4c3=O)C(OC(=O)CCc3ccc(C)cc3)C(O)C2O)cc1 [Compound 14l, 2-(3′,4′-Dihydroxyphenyl)-5,7-dihydroxy-3-β-D-{2″,6″-di-O-[3′″-(4-methylphenylpropanoyl)]}galactosyl-4H-chromen-4-one]
- MIC ([1]; Enterococcus, NCTC 12201 / VRE, read-out: MIC VRE NCTC 12201): 32 µg/mL (≈ 42.3 µM)
- MIC ([2]; Staphylococcus aureus, VISA, read-out: MIC VISA Mu50): 16 µg/mL (≈ 21.1 µM)
- MIC ([3]; Enterococcus, VRE, read-out: MIC VRE FN-1): 32 µg/mL (≈ 42.3 µM)
- MIC (Escherichia coli K-12; K12, MIC after 24 h, read-out: MIC (Gram-nagative) K-12): > 128 µg/mL
- MIC ([4]; read-out: MIC (Gram-nagative) PAO1): > 128 µg/mL
- MIC ([5]; Staphylococcus aureus, 209P / MSSA, read-out: MIC MSSA 209P): 16 µg/mL (≈ 21.1 µM)
- MIC ([6]; Staphylococcus aureus, MRSA, read-out: MIC MRSA N315): 16 µg/mL (≈ 21.1 µM)
- MIC ([7]; Staphylococcus aureus, MRSA, read-out: MIC MRSA OM481): 16 µg/mL (≈ 21.1 µM)
- MIC ([8]; Staphylococcus aureus, MRSA): 32 µg/mL (≈ 42.3 µM)
- MIC ([9]; Staphylococcus aureus, MRSA, read-out: MIC MRSA OM584): 16 µg/mL (≈ 21.1 µM)
- IC50 (E. coli DNA gyrase): 1790 nM
- IC50 [10]: 7990 nM
- IC50 [11]: 2570 nM
- MIC ([12]; Streptococcus pneumoniae, R6, read-out: MIC S. Pneumoniae R6): 32 µg/mL (≈ 42.3 µM)
